“Also recorded” adds a separate entry of the source. Like-named read-outs stand apart in the source and are kept apart here.
What was measured:
[1] = system: wild-type p53-expressing (H460) cell line; assay: CTG cell proliferation assay, H460 cell line; format: cell-based; settings: for IC50: Homo sapiens, read-out: IC50
Description: (§1) Each CTG cell proliferation assay included the steps as follows: • 1) An H460 or HT29 cell suspension was added to a 96-well plate at 100 μL per well so that each well contained 2000 or 10000 cells. • 2) The cells were incubated overnight at 37° C. in an incubator with 5% CO2. • 3) Treatment with Compounds
(§2) Combination therapy: 1 μL of adavosertib (at four concentrations), AZD7762 (at four concentrations), palbociclib (at four concentrations) or ceralasertib (at three concentrations) was added to each well and shaken gently until homogeneous mixing.
(§3) 7) Chemiluminescence was read for 1000 ms on a multimode microplate reader. • 8) IC50 (half-maximal inhibitory concentration) values of the compounds were calculated using the GraphPad Prism 5 software. 1.

[2] = system: p53-deficient (HT29) cell line; assay: CTG cell proliferation assay, HT29 cell line; format: cell-based; settings: for IC50: read-out: IC50
Description: as §1, §2, §3

[3] = H460 (wild-type p53), both drugs at low concentrations
[4] = HT29 (p53-deficient), various concentrations, also low

IC50 ([1]; NCI-H460, 72 h, H460, monotherapy, 72 h): 0.34 nM
IC50 ([1]; NCI-H460, H460, monotherapy, first assay): 0.4 nM
IC50 ([1]; NCI-H460, H460, monotherapy, second assay): 0.24 nM
IC50 ([1]; NCI-H460, H460, with 0.05 nM palbociclib (2 h pretreatment), 72 h): 0.38 nM
IC50 ([1]; NCI-H460, H460, with 0.5 nM AZD7762 (2 h pretreatment), 72 h): 0.33 nM
IC50 ([1]; NCI-H460, H460, with 0.5 nM adavosertib (2 h pretreatment), 72 h): 0.31 nM
IC50 ([1]; NCI-H460, H460, with 0.64 nM palbociclib (2 h pretreatment), 72 h): 0.38 nM
IC50 ([1]; NCI-H460, H460, with 6.4 nM AZD7762 (2 h pretreatment), 72 h): 0.47 nM
IC50 ([1]; NCI-H460, H460, with 6.4 nM adavosertib (2 h pretreatment), 72 h): 0.27 nM
IC50 ([1]; NCI-H460, H460, with 0.15 μM ceralasertib, first assay): 0.06 nM
IC50 ([1]; NCI-H460, H460, with 0.15 μM ceralasertib, second assay): 0.06 nM
IC50 ([1]; NCI-H460, H460, with 160 nM AZD7762 (2 h pretreatment), 72 h): 0.16 nM
IC50 ([1]; NCI-H460, H460, with 160 nM adavosertib (2 h pretreatment), 72 h): 0.19 nM
IC50 ([1]; NCI-H460, H460, with 400 nM palbociclib (2 h pretreatment), 72 h): 0.42 nM
IC50 ([1]; NCI-H460, H460, with 0.44 μM ceralasertib, first assay): 0.02 nM
IC50 ([1]; NCI-H460, H460, with 0.44 μM ceralasertib, second assay): 0.01 nM
IC50 ([1]; NCI-H460, H460, with 800 nM adavosertib (2 h pretreatment), 72 h): 0.15 nM
IC50 ([1]; NCI-H460, H460, with 1.3 μM ceralasertib, first assay): 0.03 nM
IC50 ([1]; NCI-H460, H460, with 1.3 μM ceralasertib, second assay): 0.02 nM
IC50 ([2]; HT29, monotherapy, 72 h): 73.4 nM
IC50 ([2]; Homo sapiens, HT-29, 72 h, HT29, monotherapy, 72 h): 84.8 nM
IC50 ([2]; Homo sapiens, HT-29, HT29, monotherapy, first assay): 129 nM
IC50 ([2]; Homo sapiens, HT-29, HT29, monotherapy, order-of-addition assay): 88.6 nM
IC50 ([2]; Homo sapiens, HT-29, HT29, monotherapy, second assay): 99 nM
IC50 ([2]; Homo sapiens, HT-29, HT29, with 0.04 μM ceralasertib, first assay): 3.26 nM
IC50 ([2]; Homo sapiens, HT-29, HT29, with 0.04 μM ceralasertib, second assay): 1.62 nM
IC50 ([2]; Homo sapiens, HT-29, HT29, with 50 nM palbociclib (2 h pretreatment), 72 h): 62.5 nM
IC50 ([2]; Homo sapiens, HT-29, HT29, with 100 nM AZD7762 (2 h pretreatment), 72 h): 1.29 nM
IC50 ([2]; Homo sapiens, HT-29, HT29, with 100 nM adavosertib (2 h pretreatment), 72 h): 2.11 nM
IC50 ([2]; Homo sapiens, HT-29, HT29, with 130 nM AZD7762 (2 h pretreatment), 72 h): 1.2 nM
IC50 ([2]; Homo sapiens, HT-29, HT29, with 130 nM adavosertib (2 h pretreatment), 72 h): 1.52 nM
IC50 ([2]; Homo sapiens, HT-29, HT29, with 160 nM AZD7762 (2 h pretreatment), 72 h): 1.18 nM
IC50 ([2]; Homo sapiens, HT-29, HT29, with 160 nM adavosertib (2 h pretreatment), 72 h): 1.2 nM
IC50 ([2]; Homo sapiens, HT-29, HT29, with 1000 nM palbociclib (2 h pretreatment), 72 h): 38.1 nM
IC50 ([2]; Homo sapiens, HT-29, HT29, with 1.3 μM ceralasertib, first assay): 1.42 nM
IC50 ([2]; Homo sapiens, HT-29, HT29, with 1.3 μM ceralasertib, second assay): 1.21 nM
IC50 ([2]; Homo sapiens, HT-29, HT29, with 2 μM ceralasertib, first assay): 2.41 nM
IC50 ([2]; Homo sapiens, HT-29, HT29, with 2 μM ceralasertib, second assay): 1.23 nM
IC50 ([2]; Homo sapiens, HT-29, HT29, with 5000 nM palbociclib (2 h pretreatment), 72 h): 31.4 nM
SMILES: C[C@H](OP(=O)(N1CC1)N1CC1)c1ccc([N+](=O)[O-])c(Oc2cccc(C(=O)N(C)C)c2)c1 [AST-3424, (S)-1-(3-(3-N,N-dimethylaminocarbonyl)phenoxyl-4-nitrophenyl)-1-ethyl-N,N′-bis(ethylene)phosphoramidate]
additive cytotoxic effect in combination therapy with ceralasertib ([1]; H460 (wild-type p53)): significant additive cytotoxic effect
additive cytotoxic effect in combination therapy with palbociclib ([1]; H460 (wild-type p53), all concentrations): did not exhibit any significant additive cytotoxic effects
additive cytotoxic effect in combination therapy with AZD7762 [1, 3]: not significant
additive cytotoxic effect in combination therapy with adavosertib [1, 3]: not significant
additive cytotoxic effect in combination therapy with ceralasertib [1, 3]: not significant
additive cytotoxic effect in combination therapy with AZD7762 ([1]; H460 (wild-type p53), medium and high concentrations): certain additive cytotoxic effects
additive cytotoxic effect in combination therapy with ceralasertib ([1]; H460 (wild-type p53), medium or high concentration): certain additive cytotoxic effects
additive cytotoxic effect in combination therapy with adavosertib ([1]; H460 (wild-type p53), medium or high concentrations): certain additive cytotoxic effects
Ratio combo/single ([1]; H460, 0.15 μM ceralasertib, first assay): 6.67
Ratio combo/single ([1]; H460, 0.15 μM ceralasertib, second assay): 4.00
Ratio combo/single ([1]; H460, 0.44 μM ceralasertib, first assay): 20.00
Ratio combo/single ([1]; H460, 0.44 μM ceralasertib, second assay): 24.00
Ratio combo/single ([1]; H460, 1.3 μM ceralasertib, first assay): 13.33
Ratio combo/single ([1]; H460, 1.3 μM ceralasertib, second assay): 12.00
Ratio single/combo ([1]; H460, IC50 monotherapy / IC50 with 0.5 nM AZD7762): 1.03
Ratio single/combo ([1]; H460, IC50 monotherapy / IC50 with 0.5 nM adavosertib): 1.10
Ratio single/combo ([1]; H460, IC50 monotherapy / IC50 with 6.4 nM AZD7762): 0.73
Ratio single/combo ([1]; H460, IC50 monotherapy / IC50 with 6.4 nM adavosertib): 1.26
Ratio single/combo ([1]; H460, IC50 monotherapy / IC50 with 160 nM AZD7762): 2.13
Ratio single/combo ([1]; H460, IC50 monotherapy / IC50 with 160 nM adavosertib): 1.79
Ratio single/combo ([1]; H460, IC50 monotherapy / IC50 with 800 nM adavosertib): 2.27
Ratio combo/single ([1]; H460, IC50 with 0.05 nM palbociclib / IC50 monotherapy): 1.12
Ratio combo/single ([1]; H460, IC50 with 0.64 nM palbociclib / IC50 monotherapy): 1.12
Ratio combo/single ([1]; H460, IC50 with 400 nM palbociclib / IC50 monotherapy): 1.24
additive cytotoxic effect in combination therapy with ceralasertib ([2]; HT29 (p53-deficient), various concentrations): very significant additive effects; also recorded: significant additive cytotoxic effects
additive cytotoxic effect in combination therapy with AZD7762 [2, 4]: significant additive cytotoxic effects
additive cytotoxic effect in combination therapy with adavosertib [2, 4]: significant additive cytotoxic effects
additive cytotoxic effect in combination therapy with palbociclib [2, 4]: significant additive cytotoxic effects
Ratio single/combo ([2]; HT29, 0.44 μM ceralasertib 2 h-pretreatment + AST-3424-72 h-cotreatment): 37.56
Ratio single/combo ([2]; HT29, 0.44 μM ceralasertib + AST-3424 72 h, simultaneously): 51.53
Ratio single/combo ([2]; HT29, AST-3424-2 h-pretreatment + 0.44 μM ceralasertib-72 h-cotreatment): 52.44
Ratio single/combo ([2]; HT29, IC50 monotherapy / IC50 with 50 nM palbociclib): 1.17
Ratio single/combo ([2]; HT29, IC50 monotherapy / IC50 with 100 nM AZD7762): 65.70
Ratio single/combo ([2]; HT29, IC50 monotherapy / IC50 with 100 nM adavosertib): 40.17
Ratio single/combo ([2]; HT29, IC50 monotherapy / IC50 with 130 nM AZD7762): 70.63
Ratio single/combo ([2]; HT29, IC50 monotherapy / IC50 with 130 nM adavosertib): 55.39
Ratio single/combo ([2]; HT29, IC50 monotherapy / IC50 with 160 nM AZD7762): 71.82
Ratio single/combo ([2]; HT29, IC50 monotherapy / IC50 with 160 nM adavosertib): 70.63
Ratio single/combo ([2]; HT29, IC50 monotherapy / IC50 with 1000 nM palbociclib): 1.92
Ratio single/combo ([2]; HT29, IC50 monotherapy / IC50 with 5000 nM palbociclib): 2.34
influence of the order of adding drugs on additive cytotoxic effect with ceralasertib ([2]; HT29, different orders of adding AST-3424 and 0.44 μM ceralasertib): did not show any differences
IC50 ([2]; Homo sapiens, HT-29, 72 h, HT29, 0.44 μM ceralasertib + AST-3424 72 h, simultaneously): 1.72 nM
IC50 ([2]; Homo sapiens, HT-29, HT29, 0.44 μM ceralasertib 2 h-pretreatment + AST-3424-72 h-cotreatment): 2.36 nM
IC50 ([2]; Homo sapiens, HT-29, HT29, AST-3424-2 h-pretreatment + 0.44 μM ceralasertib-72 h-cotreatment): 1.69 nM

From patent US20260183320A1, “METHOD FOR TREATING CANCER BY COMBINING ALKYLATING AGENT PRODRUG AND CELL CYCLE INHIBITOR” (ASCENTAWITS PHARMACEUTICALS, LTD., priority 2022, published 2026)
